Data: patent publication US10828315B2 (Madrigal Pharmaceuticals, Inc., priority 2013, dated 2020)

Conditions: mouse, plasma, 1 h, 10 µM
With `CC(C)c1cc(-c2nnc(O)n2-c2ccc(CC(=O)N(C)CCOC(=O)Nc3cccc4c3CN(C3CCC(=O)NC3=O)C4=O)cc2)c(O)cc1O` (stereo not drawn) [SDC-TRAP-0127, 2-(2-(4-(3-(2,4-dihydroxy-5-isopropylphenyl)-5-hydroxy-4H-1,2,4-triazol-4-yl)phenyl)-N-methylacetamido)ethyl(2-(2,6-dioxopiperidin-3-yl)-1-oxoisoindolin-4-yl)carbamate] the “% Remaining (1 h)” value was 87.3%. In the case of `CCNC(=O)c1nnc(-c2cc(C(C)C)c(O)cc2O)n1-c1ccc(CN2CCC(C(=O)N3CCC(n4cc(-c5cnc(N)c(O[C@H](C)c6c(Cl)ccc(F)c6Cl)c5)cn4)CC3)CC2)cc1` [SDC-TRAP-0134, (R)-4-(4-((4-(4-(4-(6-amino-5-(1-(2,6-dichloro-3-fluorophenyl)ethoxy)pyridin-3-yl)-1H-pyrazol-1-yl)piperidine-1-carbonyl)piperidin-1-yl)methyl)phenyl)-5-(2,4-dihydroxy-5-isopropylphenyl)-N-ethyl-4H-1,2,4-triazole-3-carboxamide], the “% Remaining (1 h)” value is reported as 108%. With `CCNC(=O)c1nnc(-c2cc(C(C)C)c(O)cc2O)n1-c1ccc(C(=O)N(C)CC(=O)Nc2cccc3c2CN(C2CCC(=O)NC2=O)C3=O)cc1` (stereo not drawn) [SDC-TRAP-0147, 5-(2,4-dihydroxy-5-isopropylphenyl)-4-(4-((2-((2-(2,6-dioxopiperidin-3-yl)-1-oxoisoindolin-4-yl)amino)-2-oxoethyl)(methyl)carbamoyl)phenyl)-N-ethyl-4H-1,2,4-triazole-3-carboxamide] the “% Remaining (1 h)” value was 98.1%. In the case of `CC(C)c1cc(-c2nnc(O)n2-c2ccc(CN3CCN(C(=O)O[C@H]4CC[C@@]5(C)C(=CC[C@@H]6[C@@H]5CC[C@]5(C)C(c7cccnc7)=CC[C@@H]65)C4)CC3)cc2)c(O)cc1O` [SDC-TRAP-0150, (3S,8R,9S,10R,13S,14S)-10,13-dimethyl-17-(pyridin-3-yl)-2,3,4,7,8,9,10,11,12,13,14,15-dodecahydro-1H-cyclopenta[a]phenanthren-3-yl 4-(4-(3-(2,4-dihydroxy-5-isopropylphenyl)-5-hydroxy-4H-1,2,4-triazol-4-yl)benzyl) piperazine-1-carboxylate], the “% Remaining (1 h)” value is reported as 103%. For `CC(C)c1cc(-c2nnc(O)n2-c2ccc(N3CCN(C(=O)c4ccc(COC(=O)Nc5cccc6c5CN(C5CCC(=O)NC5=O)C6=O)cc4)CC3)cc2)c(O)cc1O` (stereo not drawn) [SDC-TRAP-0156, 4-(4-(4-(3-(2,4-Dihydroxy-5-isopropylphenyl)-5-hydroxy-4H-1,2,4-triazol-4-yl)phenyl)piperazine-1-carbonyl)benzyl (2-(2,6-dioxopiperidin-3-yl)-1-oxoisoindolin-4-yl)carbamate], the “% Remaining (1 h)” value was 90.3%. With `CC(C)c1cc(-c2nnc(O)n2-c2ccc(CN3CCN(C(=O)c4ccc(COC(=O)Nc5cccc6c5CN(C5CCC(=O)NC5=O)C6=O)cc4)CC3)c(F)c2)c(O)cc1O` (stereo not drawn) [SDC-TRAP-0157, 4-(4-(4-(3-(2,4-dihydroxy-5-isopropylphenyl)-5-hydroxy-4H-1,2,4-triazol-4-yl)-2-fluorobenzyl)piperazine-1-carbonyl)benzyl (2-(2,6-dioxopiperidin-3-yl)-1-oxoisoindolin-4-yl)carbamate] the “% Remaining (1 h)” value was 81.4%. With `CCNC(=O)c1nnc(-c2cc(C(C)C)c(O)cc2O)n1-c1ccc(Oc2ccc(C(=O)NC(Cc3ccccc3)C(=O)Nc3cc(-c4cnoc4-c4cc(OC)c(OC)c(OC)c4)ccc3OC)cc2)cc1` (stereo not drawn) [SDC-TRAP-0158] the “% Remaining (1 h)” value was 92.7%. For `CCNC(=O)c1nnc(-c2cc(C(C)C)c(O)cc2O)n1-c1ccc(CN2CCC(C(=O)N[C@H](C(=O)Nc3cccc4c3CN(C3CCC(=O)NC3=O)C4=O)C(C)C)CC2)cc1` (stereo partly drawn) [SDC-TRAP-0163, 1-(4-(3-(2,4-dihydroxy-5-isopropylphenyl)-5-(ethylcarbamoyl)-4H-1,2,4-triazol-4-yl)benzyl)-N-((2S)-1-((2-(2,6-dioxopiperidin-3-yl)-1-oxoisoindolin-4-yl)amino)-3-methyl-1-oxobutan-2-yl)piperidine-4-carboxamide], the “% Remaining (1 h)” value was 93.0%. In the case of `CCNC(=O)c1nnc(-c2cc(C(C)C)c(O)cc2O)n1-c1ccc(CN2CCC(C(=O)N3CCC[C@H]3C(=O)Nc3cccc4c3CN(C3CCC(=O)NC3=O)C4=O)CC2)cc1` (stereo partly drawn) [SDC-TRAP-0164, 5-(2,4-dihydroxy-5-isopropylphenyl)-4-(4-((4-((2S)-2-((2-(2,6-dioxopiperidin-3-yl)-1-oxoisoindolin-4-yl)carbamoyl)pyrrolidine-1-carbonyl)piperidin-1-yl)methyl)phenyl)-N-ethyl-4H-1,2,4-triazole-3-carboxamide], the “% Remaining (1 h)” value is reported as 98.0%. For `CC(C)c1cc(-c2nnc(O)n2-c2ccc(CN3CCN(c4cnc(C(=O)Nc5cccc6c5CN(C5CCC(=O)NC5=O)C6=O)cn4)CC3)c(F)c2)c(O)cc1O` (stereo not drawn) [SDC-TRAP-0170, 5-(4-(4-(3-(2,4-dihydroxy-5-isopropylphenyl)-5-hydroxy-4H-1,2,4-triazol-4-yl)-2-fluorobenzyl)piperazin-1-yl)-N-(2-(2,6-dioxopiperidin-3-yl)-1-oxoisoindolin-4-yl)pyrazine-2-carboxamide], the “% Remaining (1 h)” value was 94.1%. With `CCNC(=O)c1nnc(-c2cc(C(C)C)c(O)cc2O)n1-c1ccc(Oc2ccc(C(=O)N[C@@H](CC(C)C)C(=O)Nc3cccc4c3CN(C3CCC(=O)NC3=O)C4=O)cc2)cc1` (stereo partly drawn) [SDC-TRAP-0191, 5-(2,4-dihydroxy-5-isopropylphenyl)-4-(4-(4-(((2S)-1-((2-(2,6-dioxopiperidin-3-yl)-1-oxoisoindolin-4-yl)amino)-4-methyl-1-oxopentan-2-yl)carbamoyl)phenoxy)phenyl)-N-ethyl-4H-1,2,4-triazole-3-carboxamide] the “% Remaining (1 h)” value was 77.4%. For `CO[C@H]1/C=C\C=C(/C)C(=O)NC2=CC(=O)C(NCCCCCCNC(=O)c3ncn4c(=O)n(C)nnc34)=C(C[C@@H](C)C[C@H](OC)[C@@H](O)[C@@H](C)/C=C(\C)[C@@H]1OC(N)=O)C2=O` [SDC-TRAP-0267, (4E,6Z,8S,9S,10E,12S,13S,14S,16R)-13-hydroxy-8,14-dimethoxy-4,10,12,16-tetramethyl-19-((6-(3-methyl-4-oxo-3,4-dihydroimidazo[5,1-d][1,2,3,5]tetrazine-8-carboxamidohexyl)amino)-3,20,22-trioxo-2-azabicyclo[16.3.1]docosa-1(21),4,6,10,18-pentaen-9-yl carbamate], the “% Remaining (1 h)” value was 63.2%. In the case of `CC(C)c1cc(-c2nnc(O)n2-c2ccc3c(ccn3CCCC3CCN(C(=O)c4ncn5c(=O)n(C)nnc45)CC3)c2)c(O)cc1O` [SDC-TRAP-0345, 8-(4-(3-(5-(3-(2,4-dihydroxy-5-isopropylphenyl)-5-hydroxy-4H-1,2,4-triazol-4-yl)-1H-indol-1-yl)propyl)piperidine-1-carbonyl)-3-methylimidazo[5,1-d][1,2,3,5]tetrazin-4(3H)-one], the “% Remaining (1 h)” value is reported as 63.8%.

Same assay, conditions: mouse, plasma, 1 h, 10 μM
In the case of `CC(C)c1cc(-c2nnc(O)n2-c2ccc(CN3CCN(C(=O)O[C@H]4CC[C@@]5(C)C(=CC[C@@H]6[C@@H]5CC[C@]5(C)C(c7cccnc7)=CC[C@@H]65)C4)CC3)cc2)c(O)cc1O` [SDC-TRAP-0150, (3S,8R,9S,10R,13S,14S)-10,13-dimethyl-17-(pyridin-3-yl)-2,3,4,7,8,9,10,11,12,13,14,15-dodecahydro-1H-cyclopenta[a]phenanthren-3-yl 4-(4-(3-(2,4-dihydroxy-5-isopropylphenyl)-5-hydroxy-4H-1,2,4-triazol-4-yl)benzyl) piperazine-1-carboxylate], the “% Remaining (1 h)” value is reported as 103%. For `CCNC(=O)c1nnc(-c2cc(C(C)C)c(O)cc2O)n1-c1ccc(CN2CCC(C(=O)N(C)CCCOC(=O)Nc3cccc4c3CN(C3CCC(=O)NC3=O)C4=O)CC2)cc1` (stereo not drawn) [SDC-TRAP-0231, 3-(1-(4-(3-(2,4-dihydroxy-5-isopropylphenyl)-5-(ethylcarbamoyl)-4H-1,2,4-triazol-4-yl)benzyl)-N-methylpiperidine-4-carboxamido)propyl (2-(2,6-dioxopiperidin-3-yl)-1-oxoisoindolin-4-yl)carbamate], the “% Remaining (1 h, 10 μM)” value was 98.3%.
